Data reported in patent US7348317B2, “Aqueous compositions containing metronidazole” (Dow Pharmaceutical Sciences, priority 2001, dated 2008).
Each block holds one compound with its values, some of them ahead of it.

How the values were obtained:
Type in all cases: physicochemical
[1] = Physical stability of BCD solutions in gel vehicle stored at 5° C.; details: for Results after storage at 5° C.: monitored weekly for two weeks
Method: Different solutions according to Table 1 were made with varying concentrations of beta-cyclodextrin (BCD). The solutions of BCD were maintained at 5° C. monitored weekly for two weeks for signs of crystal or precipitate formation.

[2] = Physical stability / stable solubility of metronidazole in gel vehicle containing 0.5% BCD at 5° C.; details: for Result at 5° C., 1 week: BCD 0.5 % w/w, gel vehicle
Method: Different concentrations of metronidazole were prepared with the gel vehicle of Example 1 containing 0.5% BCD. The metronidazole (MTZ)/BCD solutions were maintained at 5° C. for one week.

[3] = Physical stability of 1.0% metronidazole gel solutions with BCD and niacinamide at 5° C.; details: Metronidazole 1.0 % w/w
Method: Various gel solutions of Table 1 were prepared with a concentration of 1.0% metronidazole and containing either 0.5% or 1.0% BCD and differing concentrations of niacinamide. The gels were maintained at 5° C. for one week to observe for precipitate or crystal formation.

[4] = Physical stability of 1.0% metronidazole gel solutions with niacin at 5° C.; details: MTZ 1.0 % w/w, pH 5.0+/−0.15, gel
Method: The pH was adjusted to 5.0+/−0.15 with trolamine. The solutions were maintained at 5° C. for one week to observe evidence of precipitation or crystal formation.

[5] = Physical stability of 1% metronidazole solutions with 0.5% niacin and varying BCD at 5° C.; details: for Results, 5° C., 1 week: MTZ 1.0 % w/w, niacin 0.5 % w/w, pH 5.0+/−0.15
Method: The solutions were maintained at 5° C. for one week to observe for crystal or precipitate formation.

[6] = Physical stability of 1.0% metronidazole gel solutions with BCD and niacinamide at 5° C.
[7] = BCD at its maximum soluble aqueous concentration (0.5%), 5° C.

saturated BCD solubility in the aqueous solutions ([1]; 5° C., aqueous solution such as gel): about 0.5%
Results after storage at 5° C. ([1]; BCD 0.5 % w/w in gel vehicle of Table 1): Clear after 2 weeks
Results after storage at 5° C. ([1]; BCD 0.6 % w/w in gel vehicle of Table 1): Crystals formed after 2 weeks
Results after storage at 5° C. ([1]; BCD 0.7 % w/w in gel vehicle of Table 1): Crystals at one week
Results after storage at 5° C. ([1]; BCD 0.9 % w/w in gel vehicle of Table 1): Crystals at one week
Results after storage at 5° C. ([1]; BCD 1.0 % w/w in gel vehicle of Table 1): Crystals at one week
Results after storage at 5° C. ([1]; BCD 1.2 % w/w in gel vehicle of Table 1): Crystals at one week
Results after storage at 5° C. ([1]; BCD 1.4 % w/w in gel vehicle of Table 1): Crystals at one week
Results after storage at 5° C. ([1]; BCD 1.5 % w/w in gel vehicle of Table 1): Crystals at one week
SMILES: OC[C@H]1O[C@@H]2O[C@H]3[C@H](O)[C@@H](O)[C@@H](O[C@H]4[C@H](O)[C@@H](O)[C@@H](O[C@H]5[C@H](O)[C@@H](O)[C@@H](O[C@H]6[C@H](O)[C@@H](O)[C@@H](O[C@H]7[C@H](O)[C@@H](O)[C@@H](O[C@H]8[C@H](O)[C@@H](O)[C@@H](O[C@H]1[C@H](O)[C@H]2O)O[C@@H]8CO)O[C@@H]7CO)O[C@@H]6CO)O[C@@H]5CO)O[C@@H]4CO)O[C@@H]3CO [BCD, beta-cyclodextrin]

increase of stable solubility of MTZ by BCD [2, 7]: 0.1%
stable solubility of MTZ in aqueous solution with BCD [2, 7]: 0.8%
Result at 5° C., 1 week ([2]; MTZ 0.7 % w/w): Clear
Result at 5° C., 1 week ([2]; MTZ 0.8 % w/w): Clear
Result at 5° C., 1 week ([2]; MTZ 0.9 % w/w): Crystals formed
stable solubility of MTZ in aqueous solution, unaided ([2]; aqueous solution such as a gel, 5° C., without solubility enhancer): 0.7%
stable solubility of metronidazole in the gel vehicle ([2]; gel vehicle containing 0.5% BCD, 5° C.): about 0.8 % w/w
Results at 5° C., 1 week ([3]; BCD 0.5 % w/w, niacinamide 0.5 % w/w): Crystals formed
Results at 5° C., 1 week ([3]; BCD 0.5 % w/w, niacinamide 1.0 % w/w): Clear
Results at 5° C., 1 week ([3]; BCD 0.5 % w/w, niacinamide 2.0 % w/w): Clear
Results at 5° C., 1 week ([3]; BCD 1.0 % w/w, niacinamide 0.5 % w/w): Precipitate formed
Results at 5° C., 1 week ([3]; BCD 1.0 % w/w, niacinamide 1.0 % w/w): Clear
Results at 5° C., 1 week ([3]; BCD 1.0 % w/w, niacinamide 2.0 % w/w): Clear
Results, 5° C., 1 week ([4]; niacin 0.10 % w/w): Crystals formed
Results, 5° C., 1 week ([4]; niacin 0.15 % w/w): Crystals formed
Results, 5° C., 1 week ([4]; niacin 0.25 % w/w): Crystals formed
Results, 5° C., 1 week ([4]; niacin 0.5 % w/w, seven out of eight samples showed crystal formation): Clear/Crystals formed*
Results, 5° C., 1 week ([4]; niacin 1.0 % w/w): Clear
Results, 5° C., 1 week ([4]; niacin 1.2 % w/w): Clear
Results, 5° C., 1 week ([4]; niacin 1.5 % w/w): Clear
Results, 5° C., 1 week ([4]; niacin 1.8 % w/w): Clear
Results, 5° C., 1 week ([4]; niacin 2.0 % w/w): Clear
Results, 5° C., 1 week ([4]; niacin […] w/w): Clear
solubility of MTZ with niacin and BCD combined ([5]; 0.5% niacin combined with 0.5% BCD, pH of about 5): 1%
Results, 5° C., 1 week ([5]; BCD 0.2 % w/w): Crystals formed
Results, 5° C., 1 week ([5]; BCD 0.3 % w/w): Crystals formed
Results, 5° C., 1 week ([5]; BCD 0.5 % w/w): Clear
MTZ aqueous solubility with niacinamide [6]: 1%
increase of MTZ aqueous solubility by niacinamide ([6]; 3% concentration of niacinamide): 0.3%
solubility of MTZ above its unaided solubility with BCD and niacinamide combined ([6]; BCD at amount expected to yield 0.1% increase plus niacinamide at one third of the amount that raises solubility by 0.3%): 0.3%
SMILES: Cc1ncc([N+](=O)[O-])n1CCO [MTZ, 1-(2-hydroxyethyl)-2-methyl-5-nitroimidazole]

concentration of niacinamide required to obtain a stable aqueous gel solution of 1.0% metronidazole ([6]; niacinamide alone, no BCD): about 3%
SMILES: NC(=O)c1cccnc1 [niacinamide]
